Reference: article PMC10053118, “Laccase Production from Agrocybe pediades: Purification and Functional Characterization of a Consistent Laccase Isoenzyme in Liquid Culture” (Microorganisms, 2023)

Test system: T1, extracellular laccase (laccI) of A. pediades
T1 construct: native, partially purified from culture filtrate (Sephacryl 200), glycosylated monomer, 72 kDa native, 55-60 kDa denatured
Assay: spectrophotometric oxidation at […] nm, Michaelis-Menten nonlinear fit
Assay type: biochemical, Agrocybe pediades
Conditions: pH 5.0; 0-2 mM substrate; air oxygen as co-substrate; read-out: apparent Km

Km: 100 µM
SMILES: COc1cccc(OC)c1O [2,6-DMP, 2,6-dimethoxyphenol]
